Assay results reported in patent publication US5416073A, “Growth hormone-releasing peptides and method of treating animals, therewith” (The Adminstrators of the Tulane Educational Fund, priority 1985, dated 1995).

Columns and labels:
dairy cows = assay: Effect on milk production in dairy cows, treatments administered subcutaneously; type: in vivo; settings: for Milk Production: 10-day treatment period, mean, saline control 22.2; for % increase over control: milk production, vs saline control
Experimental: In this test, treatments are administered using a Latin Square design using four cows. Each treatment period is 10 days, and the interval between treatments is 4 days.
There is a pre-treatment period of one week, at the end of which each cow receives an indwelling jugular catheter. Catheters are flushed daily with heparinized (500-1000 IU/ml) sterile saline to help maintain potency and are replaced as needed.
The drugs are solubilized in sterile saline and injected subcutaneously each day with the dosage based on the cow's weight. Dosages range from 0.06 mg/kg animal/day to 60 mg/kg animal/day, preferably 0.10 mg/kg animal/day to 50 mg/kg/day.
On the first and last treatment days of each period, blood is collected at 15 minute intervals for 1 hour prior to and 11/2 hours after treatment; sampling continues at 30 minutes intervals for an additional 31/2 hours.
Milk samples are obtained on the evening proceeding each bleeding day, the morning of each bleeding day and combined (50% each).
Feed intake, refusals and milk production is monitored for all animals.
Results obtained are reported as mean milk production in kg/day for each treatment and compared against a saline control.

Growth Hormone Release = assay: Peptide effects on growth hormone release, plasma GH by RIA in anesthetized male rats; type: in vivo, rat; settings: for Plasma GH: 15 min
Experimental: In this evaluation, the procedures described by W. A. Murphy et al., Endocrinology 109:491-495 (1980), were employed.
In growth hormone (GH) experiments, male rats (Charles Rivers) were anesthetized with NEMBUTAL® (6 mg per 100 g body weight) which also served to maintain stimulated plasma GH levels. Exactly 30 minutes after the rats were anesthetized, 0.5 mL of saline or the test peptide in saline was administered as a SC bolus. A 1 mL blood sample was drawn from the jugular vein 15 minutes after the injection of the peptide in saline. GH levels were determined using NIADDKD rat GH RIA components.

CC[C@H](C)[C@H](NC(=O)[C@H](C)NC(=O)[C@H](CC(=O)O)NC(=O)[C@@H](C)NC(=O)[C@@H](N)Cc1ccc(O)cc1)C(=O)N[C@@H](Cc1ccccc1)C(=O)N[C@H](C(=O)N[C@@H](CC(N)=O)C(=O)N[C@@H](CO)C(=O)N[C@@H](Cc1ccc(O)cc1)C(=O)N[C@@H](CCCNC(=N)N)C(=O)N[C@@H](CCCCN)C(=O)N[C@H](C(=O)N[C@@H](CC(C)C)C(=O)NCC(=O)N[C@@H](CCC(N)=O)C(=O)N[C@@H](CC(C)C)C(=O)N[C@@H](CO)C(=O)N[C@@H](C)C(=O)N[C@@H](CCCNC(=N)N)C(=O)N[C@@H](CCCCN)C(=O)N[C@@H](CC(C)C)C(=O)N[C@@H](CC(C)C)C(=O)N[C@@H](CCC(N)=O)C(=O)N[C@@H](CC(=O)O)C(=O)N[C@H](C(=O)N[C@@H](CCSC)C(=O)N[C@@H](CO)C(=O)N[C@@H](CCCNC(=N)N)C(N)=O)[C@@H](C)CC)C(C)C)[C@@H](C)O [[D-Ala^2]-hpGRF(1-29)-NH2, D-alanine^2-human Pancreatic Growth Hormone-Releasing(1-29)-amide]
Milk Production (dairy cows; 0.4 mg/kg/day SC): 23.9 kg/day
Milk Production (dairy cows; 0.8 mg/kg/day SC): 23.8 kg/day
% increase over control (dairy cows; 0.4 mg/kg/day SC): +7.6%
% increase over control (dairy cows; 0.8 mg/kg/day SC): +7.2%
Plasma GH (Growth Hormone Release; dose 0.08 μg/100 g BW SC, saline 454 ± 62): 1118 ± 158 ng/mL
Plasma GH (Growth Hormone Release; dose 0.20 μg/100 g BW SC, saline 454 ± 62): 2122 ± 350 ng/mL
Plasma GH (Growth Hormone Release; dose 0.50 μg/100 g BW SC, saline 454 ± 62): 3539 ± 109 ng/mL

N-acetyl-L-histidine-1,D-alamine-2,L-norleucine-27-human Pancreatic Growth Hormone-Releasing (1-29)-amine [N-AcHis^1, D-Ala^2, Nle^27]
% Potency (Growth Hormone Release; by comparison to pooled standards GRF(1-29)-NH2, limits in parenthesis): 1574 (1112-2226) %
Plasma GH (Growth Hormone Release; dose 0.5 (unit not given), SC): 1146 ± 143
Plasma GH (Growth Hormone Release; dose 1.25 (unit not given), SC): 1907 ± 603

N-acetyl-L-histidine-1,D-alanine^2 -human Pancreatic Growth Hormone-Releasing(1-29)-amine [[N-Ac-His^1, D-Ala^2]-hpGRF(1-29)-NH2]
Plasma GH (Growth Hormone Release; dose 1.0 μg/100 g BW SC, saline 541 ± 78): 1974 ± 274 ng/mL
Plasma GH (Growth Hormone Release; dose 5.0 μg/100 g BW SC, saline 541 ± 78): 4989 ± 638 ng/mL
